One assay deals with P. aeruginosa ATCC 35151. Nature of the assay: microbe, parasite or virus in culture. The format is cell-based. The following applies: Pseudomonas aeruginosa, ATCC35151, read-out: Minimum inhibitory concentration, P. aeruginosa ATCC 35151.
For assay [1], the system named is P. aeruginosa (ΔmexAB-oprM). In words: Broth microdilution MIC in iron-depleted CAMHB (IDM). It counts as cell-based. The following applies: Pseudomonas aeruginosa; iron-depleted CAMHB (IDM); […]; read-out: Minimum inhibitory concentration, P. aeruginosa ΔmexAB-oprM. (Broth dilution looks for growth in wells or tubes with falling amounts of substance.)
Another assay relates to A. baumannii CDC-0083. In words: microbe, parasite or virus in culture. It counts as cell-based. The following applies: Acinetobacter baumannii, CDC0083, read-out: MIC, A. baumannii CDC-0083.
The test system of assay [2] is B. humptydooensis ATCC BAA-2767. In words: microbe, parasite or virus in culture. It counts as cell-based. The following applies: Burkholderia humptydooensis, ATCCBAA2767, read-out: Minimum inhibitory concentration (MIC), B. humptydooensis ATCC BAA-2767.
In a further assay the test system is P. aeruginosa CDC-0110. In words: microbe, parasite or virus in culture. It counts as cell-based. The following applies: Pseudomonas aeruginosa, CDC0110, read-out: Minimum inhibitory concentration, P. aeruginosa CDC-0110.
In assay [3] the test system is N. gonorrhoeae ATCC 49226. In words: Liquid broth MIC in Fastidious broth. The settings on record: Neisseria gonorrhoeae, ATCC49226, read-out: Minimum Inhibitory Concentration, ATCC 49226.
The test system of another assay is N. gonorrhoeae WHO G. In words: Liquid broth MIC in Fastidious broth. The following applies: Neisseria gonorrhoeae, read-out: Minimum Inhibitory Concentration, WHO G.
The test system of the next assay is N. gonorrhoeae WHO X. In words: Liquid broth MIC in Fastidious broth. The following applies: Neisseria gonorrhoeae, read-out: Minimum Inhibitory Concentration, WHO X.
The test system of the next assay is N. gonorrhoeae WHO Z. Nature of the assay: Liquid broth MIC in Fastidious broth. The following applies: Neisseria gonorrhoeae, read-out: Minimum Inhibitory Concentration, WHO Z.

Structures are written as SMILES. Converted amounts (≈) assume the structure as drawn.

For `Cc1cc(C(=O)NCCCN2CCN(C(=O)NC(C(=O)N[C@H]3Cc4ccc(F)c(C(=O)O)c4OB3O)c3cc(F)c(O)c(O)c3Cl)C(=O)C2=O)c(F)cn1` (stereo partly drawn) [Example 301, (3R)-3-(2-(2-chloro-5-fluoro-3,4-dihydroxyphenyl)-2-(4-(3-(5-fluoro-2-methylisonicotinamido)propyl)-2,3-dioxopiperazine-1-carboxamido)acetamido)-7-fluoro-2-hydroxy-3,4-dihydro-2H-benzo[e][1,2]oxaborinine-8-carboxylic acid], the MIC in the assay with P. aeruginosa ATCC 35151 was below 1 µg/mL; in [1] it was below 1 µg/mL; in the assay with A. baumannii CDC-0083 it was below 1 µg/mL; in assay [2] it was 2 to 4 µg/mL (≈ 2.57 to 5.15 µM); in the assay with P. aeruginosa CDC-0110, below 1 µg/mL; in assay [3], 16 to 32 µg/mL (≈ 20.6 to 41.2 µM). The MIC with N. gonorrhoeae WHO G is 16 to 32 µg/mL (≈ 20.6 to 41.2 µM); with N. gonorrhoeae WHO X it was above 64 µg/mL; in the assay with N. gonorrhoeae WHO Z, above 64 µg/mL.
Regarding `O=C(NCCCN1CCN(C(=O)N[C@H](C(=O)N[C@H]2Cc3ccc(F)c(C(=O)O)c3OB2O)c2cc(F)c(O)c(O)c2Cl)C(=O)C1=O)c1cccc(O)c1Cl` [Example 302, (R)-3-((S)-2-(4-(3-(2-chloro-3-hydroxybenzamido)propyl)-2,3-dioxopiperazine-1-carboxamido)-2-(2-chloro-5-fluoro-3,4-dihydroxyphenyl)acetamido)-7-fluoro-2-hydroxy-3,4-dihydro-2H-benzo[e][1,2]oxaborinine-8-carboxylic acid], the MIC is 2 to 4 µg/mL (≈ 2.52 to 5.04 µM) with P. aeruginosa ATCC 35151; 2 to 4 µg/mL (≈ 2.52 to 5.04 µM) in assay [1]; above 128 µg/mL in the assay on A. baumannii CDC-0083; above 128 µg/mL in assay [2]; above 128 µg/mL with P. aeruginosa CDC-0110; above 64 µg/mL in [3]. For the same molecule, the MIC with N. gonorrhoeae WHO G, in the assay with N. gonorrhoeae WHO X and in the assay with N. gonorrhoeae WHO Z was above 64 µg/mL in each case.
`O=C(NCCCN1CCN(C(=O)N[C@@H](C(=O)N[C@H]2Cc3ccc(F)c(C(=O)O)c3OB2O)c2cc(F)c(O)c(O)c2Cl)C(=O)C1=O)c1cccc(O)c1Cl` [Example 303, (R)-3-((R)-2-(4-(3-(2-chloro-3-hydroxybenzamido)propyl)-2,3-dioxopiperazine-1-carboxamido)-2-(2-chloro-5-fluoro-3,4-dihydroxyphenyl)acetamido)-7-fluoro-2-hydroxy-3,4-dihydro-2H-benzo[e][1,2]oxaborinine-8-carboxylic acid]: the MIC in the assay with P. aeruginosa ATCC 35151 is below 1 µg/mL; in assay [1] it was below 1 µg/mL; in the assay on A. baumannii CDC-0083, below 1 µg/mL; in assay [2] it was below 1 µg/mL; in the assay with P. aeruginosa CDC-0110, below 1 µg/mL; in assay [3] it was 4 to 8 µg/mL (≈ 5.04 to 10.1 µM). Moreover, the results for the MIC with N. gonorrhoeae WHO G, with N. gonorrhoeae WHO X and with N. gonorrhoeae WHO Z were 4 to 8 µg/mL (≈ 5.04 to 10.1 µM), above 64 µg/mL and 16 to 32 µg/mL (≈ 20.1 to 40.3 µM), respectively.
Take `O=C(NCCCN1CCN(C(=O)NC(C(=O)N[C@H]2Cc3ccc(F)c(C(=O)O)c3OB2O)c2cc(F)c(O)c(O)c2Cl)C(=O)C1=O)c1ccc(O)c(F)c1` (stereo partly drawn) [Example 304, (3R)-3-(2-(2-chloro-5-fluoro-3,4-dihydroxyphenyl)-2-(4-(3-(3-fluoro-4-hydroxybenzamido)propyl)-2,3-dioxopiperazine-1-carboxamido)acetamido)-7-fluoro-2-hydroxy-3,4-dihydro-2H-benzo[e][1,2]oxaborinine-8-carboxylic acid]: the MIC in the assay on P. aeruginosa ATCC 35151 was below 1 µg/mL; in assay [1], below 1 µg/mL; in the assay with A. baumannii CDC-0083, below 1 µg/mL; in assay [2] it was 2 to 4 µg/mL (≈ 2.57 to 5.14 µM); with P. aeruginosa CDC-0110, below 1 µg/mL; in assay [3], 16 to 32 µg/mL (≈ 20.6 to 41.1 µM). In addition, the figures for the MIC in the assay on N. gonorrhoeae WHO G, in the assay with N. gonorrhoeae WHO X and with N. gonorrhoeae WHO Z were 16 to 32 µg/mL (≈ 20.6 to 41.1 µM), above 64 µg/mL and above 64 µg/mL, respectively.

(Values after patent US20240270762A1, “PENICILLIN-BINDING PROTEIN INHIBITORS” (priority 2021, published 2024).)
